Experiments:
[1] = target: T1, Rho-associated protein kinase 1 (Homo sapiens, UniProt Q13464); test: Displacement of Y-27632 from ROCK-1 assessed as drop in intensity of binding signals by NMR competition experiment; set-up: concentration or dose not given beside the values
Target sequence in this assay (Q13464 2-1354 limits assumed): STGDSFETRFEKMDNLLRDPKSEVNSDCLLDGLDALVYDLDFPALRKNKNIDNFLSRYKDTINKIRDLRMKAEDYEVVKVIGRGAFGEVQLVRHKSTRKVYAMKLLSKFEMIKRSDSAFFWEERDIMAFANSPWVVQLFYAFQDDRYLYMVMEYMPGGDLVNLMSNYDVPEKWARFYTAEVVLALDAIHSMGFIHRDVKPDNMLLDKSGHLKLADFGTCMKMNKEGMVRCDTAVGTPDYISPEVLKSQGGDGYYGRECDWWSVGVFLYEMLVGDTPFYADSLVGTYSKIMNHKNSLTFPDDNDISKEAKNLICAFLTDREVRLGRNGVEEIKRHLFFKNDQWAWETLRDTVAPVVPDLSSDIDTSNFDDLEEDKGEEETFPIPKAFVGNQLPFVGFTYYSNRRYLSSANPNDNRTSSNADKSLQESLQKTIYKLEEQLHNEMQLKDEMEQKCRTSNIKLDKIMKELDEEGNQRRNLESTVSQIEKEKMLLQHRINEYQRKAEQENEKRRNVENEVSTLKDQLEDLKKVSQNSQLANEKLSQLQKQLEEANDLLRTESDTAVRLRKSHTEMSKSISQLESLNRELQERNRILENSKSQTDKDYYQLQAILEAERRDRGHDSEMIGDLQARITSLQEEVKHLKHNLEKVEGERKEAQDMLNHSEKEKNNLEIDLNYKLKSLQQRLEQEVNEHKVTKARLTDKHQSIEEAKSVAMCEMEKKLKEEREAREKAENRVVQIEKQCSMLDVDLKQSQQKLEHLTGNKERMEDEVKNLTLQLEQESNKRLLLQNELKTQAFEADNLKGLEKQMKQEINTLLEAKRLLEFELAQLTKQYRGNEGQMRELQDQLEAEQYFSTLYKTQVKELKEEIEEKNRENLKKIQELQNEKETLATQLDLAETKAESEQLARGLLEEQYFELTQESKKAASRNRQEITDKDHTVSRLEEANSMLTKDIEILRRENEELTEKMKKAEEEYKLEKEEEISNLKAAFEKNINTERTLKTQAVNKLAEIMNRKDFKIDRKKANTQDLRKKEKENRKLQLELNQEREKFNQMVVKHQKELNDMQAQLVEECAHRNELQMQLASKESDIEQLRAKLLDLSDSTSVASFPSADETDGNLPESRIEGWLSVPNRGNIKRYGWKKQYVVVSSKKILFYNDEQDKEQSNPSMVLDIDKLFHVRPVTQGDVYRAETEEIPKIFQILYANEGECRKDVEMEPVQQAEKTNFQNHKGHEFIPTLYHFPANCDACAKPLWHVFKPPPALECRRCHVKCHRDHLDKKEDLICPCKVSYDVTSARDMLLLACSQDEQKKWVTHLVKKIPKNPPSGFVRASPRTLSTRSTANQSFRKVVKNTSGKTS

[2] = target: T1, Rho-associated protein kinase 1; test: Inhibition of ROCK-1 by Immobilized metal ion affinity-based fluorescence polarization assay
Target sequence in this assay (Q13464 whole entry): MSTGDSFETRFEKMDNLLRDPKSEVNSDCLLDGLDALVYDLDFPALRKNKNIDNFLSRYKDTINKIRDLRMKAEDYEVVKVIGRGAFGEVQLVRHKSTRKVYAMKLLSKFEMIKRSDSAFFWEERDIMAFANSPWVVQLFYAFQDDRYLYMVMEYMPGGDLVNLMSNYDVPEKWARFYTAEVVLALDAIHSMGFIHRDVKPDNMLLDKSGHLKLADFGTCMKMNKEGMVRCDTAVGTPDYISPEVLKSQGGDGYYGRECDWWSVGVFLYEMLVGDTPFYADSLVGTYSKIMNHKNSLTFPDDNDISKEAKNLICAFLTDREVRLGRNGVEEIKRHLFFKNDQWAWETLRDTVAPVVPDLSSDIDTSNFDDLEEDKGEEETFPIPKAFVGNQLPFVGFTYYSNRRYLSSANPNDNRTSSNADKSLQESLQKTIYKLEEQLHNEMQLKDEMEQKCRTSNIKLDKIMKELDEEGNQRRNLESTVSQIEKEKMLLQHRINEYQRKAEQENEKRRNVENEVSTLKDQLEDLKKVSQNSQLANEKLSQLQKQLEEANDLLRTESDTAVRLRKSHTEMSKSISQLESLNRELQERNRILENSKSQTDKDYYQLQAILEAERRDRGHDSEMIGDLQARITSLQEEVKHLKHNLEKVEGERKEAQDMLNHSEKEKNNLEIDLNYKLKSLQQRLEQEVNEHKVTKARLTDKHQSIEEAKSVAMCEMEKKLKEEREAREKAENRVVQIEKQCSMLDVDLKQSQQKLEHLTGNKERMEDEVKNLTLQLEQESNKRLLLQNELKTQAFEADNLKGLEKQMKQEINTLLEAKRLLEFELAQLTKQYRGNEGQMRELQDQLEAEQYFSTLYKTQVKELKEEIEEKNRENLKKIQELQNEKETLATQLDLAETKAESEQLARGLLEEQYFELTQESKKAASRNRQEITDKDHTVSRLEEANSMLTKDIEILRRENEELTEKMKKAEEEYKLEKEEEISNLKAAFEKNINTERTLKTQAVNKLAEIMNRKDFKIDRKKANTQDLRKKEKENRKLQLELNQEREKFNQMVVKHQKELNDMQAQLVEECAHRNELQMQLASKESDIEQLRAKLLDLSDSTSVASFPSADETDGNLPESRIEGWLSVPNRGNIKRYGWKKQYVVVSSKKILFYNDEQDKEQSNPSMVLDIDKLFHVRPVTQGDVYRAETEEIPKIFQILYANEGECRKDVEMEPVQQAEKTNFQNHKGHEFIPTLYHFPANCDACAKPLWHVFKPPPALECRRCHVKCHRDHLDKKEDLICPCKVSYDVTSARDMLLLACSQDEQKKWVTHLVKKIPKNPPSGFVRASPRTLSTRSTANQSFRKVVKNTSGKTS

[3] = Half life in rat hepatocyte; type: ADME, cell-based, Liver; details: hepatocytes
[4] = Half life in mouse liver microsome; type: ADME; details: liver microsomes
[5] = Half life in Wistar rat; type: ADME, organism-based; details: in vivo
[6] = Permeability from basolateral to apical side of human Caco2 cells; type: ADME, cell-based; details: Caco-2, read-out: permeability
[7] = Plasma clearance in Wistar rat; type: ADME, organism-based
[8] = Half life in rat liver microsome; type: ADME; details: liver microsomes
[9] = Oral bioavailability in Wistar rat; type: ADME, organism-based; details: in vivo
[10] = Volume of distribution at steady state in Wistar rat; type: ADME, organism-based; details: in vivo, read-out: Vdss
[11] = Permeability from apical to basolateral side of human Caco2 cells; type: ADME, cell-based; details: Caco-2, read-out: permeability
[12] = Half life in human liver microsome; type: ADME; details: liver microsomes
[13] = Oral bioavailability in C57 mouse; type: ADME, organism-based; details: in vivo
[14] = Volume of distribution at steady state in C57 mouse; type: ADME, organism-based; details: in vivo, read-out: Vdss
[15] = Plasma clearance in C57 mouse; type: ADME, organism-based
[16] = target: Voltage-gated inwardly rectifying potassium channel KCNH2 (Homo sapiens, UniProt Q12809); test: Displacement of [3H]dofetilide from human ERG
Chain of Voltage-gated inwardly rectifying potassium channel KCNH2 (Q12809 whole entry): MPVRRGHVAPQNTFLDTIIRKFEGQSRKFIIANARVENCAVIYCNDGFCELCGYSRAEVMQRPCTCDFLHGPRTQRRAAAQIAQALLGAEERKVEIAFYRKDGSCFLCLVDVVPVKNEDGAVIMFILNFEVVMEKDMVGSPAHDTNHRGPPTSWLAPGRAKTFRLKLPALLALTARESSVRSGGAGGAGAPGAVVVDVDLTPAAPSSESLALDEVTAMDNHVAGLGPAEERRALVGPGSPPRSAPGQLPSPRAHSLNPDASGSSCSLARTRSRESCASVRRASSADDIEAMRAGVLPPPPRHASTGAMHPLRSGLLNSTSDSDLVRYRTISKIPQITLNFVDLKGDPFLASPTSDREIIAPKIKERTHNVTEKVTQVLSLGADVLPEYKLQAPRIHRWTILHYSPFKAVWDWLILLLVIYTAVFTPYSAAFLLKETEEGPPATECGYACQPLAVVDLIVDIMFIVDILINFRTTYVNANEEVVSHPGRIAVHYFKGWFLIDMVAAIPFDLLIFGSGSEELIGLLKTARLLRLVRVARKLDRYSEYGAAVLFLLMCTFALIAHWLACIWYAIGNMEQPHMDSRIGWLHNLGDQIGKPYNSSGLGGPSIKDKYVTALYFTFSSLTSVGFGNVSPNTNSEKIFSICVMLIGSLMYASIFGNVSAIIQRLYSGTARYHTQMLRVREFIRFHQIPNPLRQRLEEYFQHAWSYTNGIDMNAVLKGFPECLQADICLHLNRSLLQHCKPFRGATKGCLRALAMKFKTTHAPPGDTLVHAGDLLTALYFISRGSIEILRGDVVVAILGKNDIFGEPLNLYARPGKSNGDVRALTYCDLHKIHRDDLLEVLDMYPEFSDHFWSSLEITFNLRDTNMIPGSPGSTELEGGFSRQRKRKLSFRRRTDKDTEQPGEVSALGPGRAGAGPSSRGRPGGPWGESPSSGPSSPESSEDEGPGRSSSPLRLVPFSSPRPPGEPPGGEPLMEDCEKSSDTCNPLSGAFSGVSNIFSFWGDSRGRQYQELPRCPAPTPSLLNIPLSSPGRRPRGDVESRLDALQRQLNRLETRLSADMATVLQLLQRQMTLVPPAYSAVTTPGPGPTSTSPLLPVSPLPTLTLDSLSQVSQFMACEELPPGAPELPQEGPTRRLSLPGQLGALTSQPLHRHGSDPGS

[17] = Half life in C57 mouse; type: ADME, organism-based; details: in vivo
[18] = Dissociation constant, pKa of the compound; type: physicochemical
[19] = target: Rho-associated protein kinase 2 (Homo sapiens, UniProt O75116); test: Inhibition of ROCK-2 by Immobilized metal ion affinity-based fluorescence polarization assay
[20] = target: T1, Rho-associated protein kinase 1; test: Inhibition of ROCK-1
Target sequence in this assay (Q13464 whole entry): as the sequence (Q13464 whole entry) above

Row | SMILES | Activity [1] [%] | IC50 [2] [nM] | also measured
1 | Nc1nc2c(c(=O)[nH]1)CC=N2 | 68 |  | 
2 | Nc1nccc2cc(CNCCc3ccncc3)ccc12 |  | 1860 | 
3 | c1ccc(-n2cccc2)nc1 | 30 |  | 
4 | c1ccc2[nH]cnc2c1 | 64 |  | 
5 | Cn1nc(C(C)(C)C)cc1N | 20 |  | 
6 | Nc1nccc2cc(O[C@H]3CCCN(Cc4ccccc4)C3)ccc12 |  |  | half-life [3]: 27 min; half-life [4]: > 120 min; half-life [5]: 492 min; Papp B→A [6]: 1.5 ×10⁻⁶ cm/s; clearance [7]: 295 mL/min/kg; half-life [8]: 22 min; bioavailability [9]: 7%; Vd [10]: 8.2 L/kg; Papp A→B [11]: 2.2 ×10⁻⁶ cm/s; half-life [12]: 12 min
7 | O=S(=O)(c1cccc2c(O)nccc12)N1CCCNCC1 [HYDROXYFASUDIL] |  |  | bioavailability [13]: 57%; Vd [14]: 2.4 L/kg; clearance [15]: 34 mL/min/kg; Ki [16]: 7940 nM; half-life [17]: 45 min
8 | O=S(=O)(c1cccc2cnccc12)N1CCCNCC1 [FASUDIL] |  |  | bioavailability [13]: 3.6%; Vd [14]: 1.8 L/kg
9 | COc1ccc(CCNCc2ccc3c(N)nccc3c2)cc1 |  | 1000 | 
10 | CS(=O)(=O)N1CCC[C@H](Oc2ccc3c(N)nccc3c2)C1 |  | > 100000 | 
11 | Nc1nccc2cc(CNCCc3ccc(Cl)c(Cl)c3)ccc12 |  | 776 | 
12 | Nc1nccc2cc(CNCCNc3ccccc3)ccc12 |  | 1480 | 
13 | NCc1ccc2c(N)nccc2c1 |  | 7760 | pKa [18]: 7.6
14 | O=C(Nc1nccs1)c1ccncc1 | > 80 |  | 
15 | Nc1nccc2cc(OC3CCN(Cc4ccccc4)CC3)ccc12 |  | 4270 | 
16 | Nc1nccc2cc(CNCCOc3ccccc3)ccc12 |  | 589 | 
17 | CC1(C)C(=O)Nc2ccccc21 | 25 |  | 
18 | C[C@@H](N)[C@H]1CC[C@H](C(=O)Nc2ccncc2)CC1 [Y-27632] |  |  | bioavailability [13]: 52%; Vd [14]: 3.8 L/kg; clearance [15]: 50.9 mL/min/kg; half-life [17]: 100 min

Row | SMILES | Activity [1] [%] | IC50 [2] [nM] | also measured
19 | Nc1ccnc2ccncc12 | > 80 |  | 
20 | Nc1nccc2cc(CNCc3ccc4ccccc4c3)ccc12 |  | 3470 | 
21 | CC(=O)c1ccccc1 | 60 |  | 
22 | Nc1nccc2cc(CNCc3ccccc3)ccc12 |  | 6760 | 
23 | c1ccc2cnccc2c1 | 70 |  | 
24 | NC(=O)c1ccccc1O | 34 |  | 
25 | Nc1nccc2cc(CNCCc3cccc(C(F)(F)F)c3)ccc12 |  | 1700 | 
26 | CC1=NC(C(C)C)CO1 (configuration not stated) | 40 |  | 
27 | Cc1ccc(CCNCc2ccc3c(N)nccc3c2)cc1 |  | 813 | 
28 | Nc1nccc2cc(CNCc3cccc(Oc4ccccc4)c3)ccc12 |  | 575 | 
29 | CN(CCc1ccccc1)Cc1ccc2c(N)nccc2c1 |  | 427 | 
30 | Nc1ncnc2ccccc12 | > 80 |  | 
31 | c1cc(-c2cnco2)ccn1 | > 80 |  | 
32 | c1ccn2ccnc2c1 | 38 |  | 
33 | Nc1nccc2cc(OC3CCNCC3)ccc12 |  | 3630 | 
34 | c1ccc2[nH]ncc2c1 | > 80 |  | 
35 | Nc1nccc2cc(CNCCc3ccccc3)ccc12 |  | 1290 | Ki [16]: 3160 nM; IC50 [19]: 1290 nM; Ki [20]: 63.1 nM
36 | c1cc(N2CCOCC2)ccn1 | > 80 |  | 

Source: ChEMBL document CHEMBL1641363, “Fragment-based discovery of 6-substituted isoquinolin-1-amine based ROCK-I inhibitors” (Bioorg Med Chem Lett, 2011)
